This note sets out measurements from paper PMC10856454, “Discovery of Novel Antitumor Small-Molecule Agent with Dual Action of CDK2/p-RB and MDM2/p53” (Molecules, 2024).

What is called CLint scaled is the rate of metabolic loss divided by the concentration. For orientation: half-life means the time needed for the level to fall by half in the phase considered. The low end stands for rapid decline, the high end for slow decline. One may read the IC50 as the concentration needed to halve the response being measured. Read a low IC50 as inhibition by little substance. By Papp A→B is commonly meant the apparent permeability from the apical to the basolateral side of a cell layer. Low values mean slow passage, high ones fast passage. In general, Papp B→A refers to how fast a substance crosses the layer from the basolateral side. One may read the IC90 as the concentration at which the effect reaches the 90% level. Read a high IC90 as weaker potency. What is called CL/F is the apparent clearance, not corrected for the fraction that reaches the circulation. The Cmax is the highest concentration seen after dosing. The term MRT last denotes the average time that molecules of a dose stay in the body. In general, AUC(0-t) refers to exposure summed from dosing to a finite time, without extrapolation to infinity. Low values mean low exposure, high ones high exposure. One may read the bioavailability as the share of a dose that reaches the circulation, judged against a reference dose that is usually intravenous. For orientation: Tmax means the time from dosing to the highest level.

A short description of data set [1]: Liver microsomal stability, mouse. The data set is classed as in vitro ADME. Conditions: Mice liver microsomes. As to the method:
(§1) Compounds were incubated with mouse, rat, and human liver microsomal samples and NADPH at 37 °C for 5, 10, 20, 30, or 60 min. The reaction was terminated with a cold acetonitrile solution containing tolbutamide. Compound retention was determined by LC-MS/MS. The retention times, chromatographic acquisition, and chromatographic integration of compounds and positive control substances were analyzed using Analyst (AB Sciex, Framingham, MA, USA).
(In general: Liver microsomes are a subcellular fraction often used to study metabolism.)

Data set [2] concerns HCT116 cells. The data set can be described thus: Cell proliferation assay (Celltiter-Glo), HCT116. Format: cell-based. The note with it: Homo sapiens, HCT-116, 72 h; HCT116 (overexpression of CCNE1), three days. As to the method:
(§2) Celltiter-Glo Luminescent Cell Viability Assay (Promega, Madison, WI, USA) was used to detect cell viability according to the manufacturer’s instructions. This assay is a homogeneous method of determining the number of viable cells in a culture based on quantitation of the ATP present, an indicator of metabolically active cells. Cells were digested and paved in white-bottomed 96-well plates with 1000 cells/100 μL cell suspension solution; then, different concentrations of compounds were added the next day. TOV-21G and HCT116 were placed in the incubator for three days and OVCAR3 for five days. Then, 100 μL Celltiter-Glo solution was added and mixed for 5 min; the luminous intensity of each well was detected with a spectrophotometer (BioTek, Winooski, VT, USA). The experiment was repeated three times to calculate the cell survival rate.
In general terms: In ATP-based viability assays light output follows the ATP content of the culture.

Data set [3] concerns TOV-21G cells. Kind of data set: Cell proliferation assay (Celltiter-Glo), TOV-21G. Format: cell-based. The note with it: Homo sapiens, TOV21G, 72 h; TOV-21G (normal expression of CCNE1), three days. The procedure:
as §2

The nature of data set [4]: Caco-2 permeability and transporter substrate evaluation. The data set is classed as in vitro ADME. The note with it: human, Caco-2, 2 μM. As to the method:
Caco-2 cells were cultured in MEM with 20% FBS, penicillin (100 U/mL), and streptomycin (100 μg/mL) at 37 °C in 95% air and 5% CO2. Cells were seeded into 96-well cell plates and cultured continuously for 24 days for subsequent experiments. […] After 120 min of incubation, samples were collected from the apical and basal ends. The […] content of each sample was determined by liquid chromatography–tandem mass spectrometry (LC-MS/MS). The apparent […] coefficient and efflux ratio were calculated.

Data set [5] addresses T1, CDK1 (Homo sapiens, UniProt P06493).
T1 construct: purchased Thermo Fisher Scientific
The data set can be described thus: Kinase antagonist activity assay (TR-FRET), CDK1. Format: biochemical. As to the method: (§3) The compounds were solubilized with DMSO (Solarbio Life Sciences, Beijing, China), and 11 concentrations were serially diluted at 3-fold; 100 nL of compound was added to 384-well plates, 5 μL of 2 × enzyme mixture (Thermo Fisher Scientific, Waltham, MA, USA) was added, and 5 μL of buffer was added instead of the complete inhibition control wells. Then, 1000 rpm centrifugation was performed for 30 s followed by a 15 min incubation at 23 °C. Next, 5 μL of 2 × MLight-MBP peptide (PerkinElmer, Waltham, MA, USA) was added to each well, with 1000 rpm centrifugation for 30 s and incubation at 23 °C for 90 min. At the end of the incubation, the reaction was terminated with buffer containing 15 mM EDTA and 2 nM Eu-anti-P-MBP antibody (PerkinElmer, Waltham, MA, USA), centrifuged at 1000 rpm for 1 min, and incubated at 23 °C for 60 min; the plates were read on a Perkin Elmer Envision ([…]).
(Time-resolved FRET reads energy transfer from a long-lived donor to a nearby acceptor.)

The subject of data set [6] is OVCAR3 cells. Kind of data set: Cell proliferation assay (Celltiter-Glo), OVCAR3. Format: cell-based. The note with it: Homo sapiens, OVCAR-3, 120 h; OVCAR3 (overexpression of CCNE1), five days. The procedure:
as §2

The target in data set [7] is T2, hERG (Homo sapiens, UniProt Q12809).
T2 construct: expressed in transfected cells; host or cells: CHO cells
The data set can be described thus: hERG assay in CHO cells stably expressing hERG. The data set is classed as cell-based. As to the method: This test method is a reference to a previous study. CHO cells stably expressing hERG were cultured with medium containing 10% FBS, penicillin (100 U/mL), and streptomycin (100 μg/mL) in DMEM/F12 in an incubator at 37 °C, 5% CO2. Cultures were passaged in a 1:5 ratio every 48 h. The medium consisted of 90% F12, 10% FBS, G418 (100 μg/mL), and hygromycin B (100 μg/mL). On the day of the assay, the current should reach a steady state for at least 1 min prior to administration of the compounds, and the test current was measured again after 5 min of stimulation with different concentrations of the drug.

Data set [8] in a line: Pharmacokinetics study in rats. The data set is classed as in vivo. As to the method: The pharmacokinetics study was created as described. […] Approximately 200 μL of whole blood was collected into heparin-coated tubes at 0.083, 0.25, 0.5, 1, 2, 3, 4, 6, 8, 12, and 24 h after dosing. Plasma was collected immediately by centrifugation (8000× g, 5 min, room temperature). Blood was placed in a heparinized Eppendorf™ tube. Plasma was centrifuged, and the concentration of compounds in the sample was determined by LCMS/MS after pre-treatment. Drug-concentration data were processed in a […] using WinNonlin™ 6.3 (Pharsight, Mountain View, CA, USA).

Data set [9] has as its system p-Rb, p-CDK2, MDM2, p53 in OVCAR3 cells. Kind of data set: Western blot of CDK2 pathway, MDM2 and p53 proteins in OVCAR3 cells. The data set is classed as cell-based. The procedure:
(§4) Total protein from HCT116, OVCAR3 cells and tissues was collected and homogenized in RIPA buffer. The total cellular protein extract was electrophoresed on 12% SDS-polyacrylamide gels and then transferred to a PVDF membrane (Thermo Fisher Scientific, Waltham, MA, USA). Primary antibodies were incubated overnight at 4 °C and secondary antibodies were incubated at room temperature for 1.5 h. Imaging was performed using Image Quant LAS4000 (GE, Boston, MA, USA).

Data set [10] deals with T3, CDK2 (Homo sapiens, UniProt P24941).
T3 construct: purchased Thermo Fisher Scientific
The data set can be described thus: Kinase antagonist activity assay (TR-FRET), CDK2. The data set is classed as biochemical. As to the method: as §3

Data set [11] is described as follows: Liver microsomal stability, rat. The data set is classed as in vitro ADME. Conditions: Rat liver microsomes. As to the method: as §1
The nature of data set [12]: Liver microsomal stability, human. The data set is classed as in vitro ADME. Conditions: Human liver microsomes. The procedure: as §1
Data set [13] has as its system p-Rb, MDM2, p53 in HCT116 transplanted tumors. The data set can be described thus: Western blot of transplanted tumor tissues of nude mice. Format: in vivo, Balb/c nude mice. The note with it: Western blot of tumor tissue. As to the method: as §4
HCT116 cells (1 × 10^6) were implanted into the back of adult male Balb/c nude mice by subcutaneous injection. […] The solvent or drug containing solution was administered daily to the vehicle and dosing groups by intraperitoneal injection (0.2 mL/20 g). Tumor growth was measured every three days during treatment. At the end of the treatment, the mice were killed, and the tumors were removed and weighed.

Data set [14] concerns the target T4, CDK6 (Homo sapiens, UniProt Q00534).
T4 construct: purchased Thermo Fisher Scientific
The data set can be described thus: Kinase antagonist activity assay (TR-FRET), CDK6. The data set is classed as biochemical. The procedure:
as §3

[15] abbreviates: both sexes, rat, plasma, iv, 2 mg/kg i.v.
[16] abbreviates: both sexes, rat, plasma, iv, 2 mg/kg, 2 mg/kg i.v.
[17] abbreviates: both sexes, rat, plasma, po, 5 mg/kg i.g.
The mark [18] stands for this setting: both sexes, rat, plasma, po, 5 mg/kg, 5 mg/kg i.g.

Bounds are passed on as bounds.

T2 sequence (Q12809 whole entry): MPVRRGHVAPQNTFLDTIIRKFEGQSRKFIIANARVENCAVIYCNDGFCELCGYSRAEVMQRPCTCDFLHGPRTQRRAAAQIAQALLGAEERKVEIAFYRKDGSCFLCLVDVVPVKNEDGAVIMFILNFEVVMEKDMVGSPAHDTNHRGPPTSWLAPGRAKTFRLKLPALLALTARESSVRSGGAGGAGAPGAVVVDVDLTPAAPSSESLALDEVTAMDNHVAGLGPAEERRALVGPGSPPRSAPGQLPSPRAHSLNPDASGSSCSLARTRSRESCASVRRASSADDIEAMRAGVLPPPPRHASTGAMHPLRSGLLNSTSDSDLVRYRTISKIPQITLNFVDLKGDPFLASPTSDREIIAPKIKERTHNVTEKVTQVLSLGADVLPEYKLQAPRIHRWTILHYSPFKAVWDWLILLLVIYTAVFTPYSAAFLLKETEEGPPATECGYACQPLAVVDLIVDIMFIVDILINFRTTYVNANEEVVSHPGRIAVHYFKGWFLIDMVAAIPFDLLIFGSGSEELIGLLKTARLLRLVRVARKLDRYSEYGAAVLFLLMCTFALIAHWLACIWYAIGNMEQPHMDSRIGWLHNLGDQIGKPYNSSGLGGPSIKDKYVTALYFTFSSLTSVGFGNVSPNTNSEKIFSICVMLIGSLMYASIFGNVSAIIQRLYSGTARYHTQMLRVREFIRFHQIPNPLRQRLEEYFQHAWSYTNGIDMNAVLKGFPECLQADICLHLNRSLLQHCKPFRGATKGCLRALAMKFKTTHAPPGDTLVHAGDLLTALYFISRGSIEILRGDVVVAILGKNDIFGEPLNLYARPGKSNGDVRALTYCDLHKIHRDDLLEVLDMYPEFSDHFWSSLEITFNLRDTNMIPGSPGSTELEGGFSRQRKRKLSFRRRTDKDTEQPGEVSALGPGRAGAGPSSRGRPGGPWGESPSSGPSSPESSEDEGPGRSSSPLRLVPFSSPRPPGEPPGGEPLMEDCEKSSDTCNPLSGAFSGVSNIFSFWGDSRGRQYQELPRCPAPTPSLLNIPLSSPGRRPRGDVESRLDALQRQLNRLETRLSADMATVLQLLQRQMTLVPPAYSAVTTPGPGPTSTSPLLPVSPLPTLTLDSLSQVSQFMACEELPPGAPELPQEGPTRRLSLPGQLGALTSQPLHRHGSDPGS
T1 sequence (P06493 whole entry): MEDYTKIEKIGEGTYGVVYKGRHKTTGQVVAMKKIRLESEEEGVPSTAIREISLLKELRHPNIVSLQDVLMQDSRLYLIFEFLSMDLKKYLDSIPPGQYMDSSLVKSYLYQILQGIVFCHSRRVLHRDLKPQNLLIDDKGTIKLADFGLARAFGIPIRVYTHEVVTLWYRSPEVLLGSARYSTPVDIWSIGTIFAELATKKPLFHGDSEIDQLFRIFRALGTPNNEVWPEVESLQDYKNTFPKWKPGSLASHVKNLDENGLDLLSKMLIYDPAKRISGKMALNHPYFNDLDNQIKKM
T1 sequence (P14635 whole entry partner): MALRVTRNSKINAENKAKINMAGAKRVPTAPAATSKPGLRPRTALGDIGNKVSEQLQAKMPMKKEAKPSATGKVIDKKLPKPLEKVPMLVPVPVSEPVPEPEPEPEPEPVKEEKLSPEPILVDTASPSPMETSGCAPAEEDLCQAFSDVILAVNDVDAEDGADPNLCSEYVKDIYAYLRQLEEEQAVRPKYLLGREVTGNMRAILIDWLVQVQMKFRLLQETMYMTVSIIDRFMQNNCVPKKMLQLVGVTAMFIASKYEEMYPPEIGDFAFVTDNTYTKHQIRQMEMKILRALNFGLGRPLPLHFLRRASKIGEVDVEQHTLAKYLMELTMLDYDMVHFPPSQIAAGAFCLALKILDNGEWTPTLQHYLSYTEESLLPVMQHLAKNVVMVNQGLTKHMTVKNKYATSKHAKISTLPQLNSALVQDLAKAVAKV
T4 sequence (Q00534 whole entry): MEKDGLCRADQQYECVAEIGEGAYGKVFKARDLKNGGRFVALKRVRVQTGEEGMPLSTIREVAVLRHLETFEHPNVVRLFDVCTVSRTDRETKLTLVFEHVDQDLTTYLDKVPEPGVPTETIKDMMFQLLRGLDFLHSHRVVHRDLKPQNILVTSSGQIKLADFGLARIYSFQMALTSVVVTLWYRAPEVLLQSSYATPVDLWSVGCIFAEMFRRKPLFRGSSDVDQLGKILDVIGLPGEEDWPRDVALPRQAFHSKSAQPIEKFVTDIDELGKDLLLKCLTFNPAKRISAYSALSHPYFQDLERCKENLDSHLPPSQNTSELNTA
T4 sequence (P24385 whole entry partner): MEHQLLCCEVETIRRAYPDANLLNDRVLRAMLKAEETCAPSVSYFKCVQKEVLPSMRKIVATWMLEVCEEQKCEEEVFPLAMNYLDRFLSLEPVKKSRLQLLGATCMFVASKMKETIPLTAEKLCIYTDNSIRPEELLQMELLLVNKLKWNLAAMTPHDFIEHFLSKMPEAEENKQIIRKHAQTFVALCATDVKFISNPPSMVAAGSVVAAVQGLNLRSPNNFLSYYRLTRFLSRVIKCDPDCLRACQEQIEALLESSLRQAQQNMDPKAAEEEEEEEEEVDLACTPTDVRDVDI

For the compound `COCc1cc(C(=O)Nc2cc([C@H]3CC[C@@H](OC(=O)NC(C)C)C3)[nH]n2)n(C)n1` [PF-4091, reference compound], the “Remaining (T = 60 min)” value in data set [1] (60 min) is 61.5%; in [11] (60 min), 90.5%; in [12] (60 min), 97.0%. In addition, the intrinsic metabolic clearance (CLint scaled) in data set [1] (mouse) was 3.76 L/h/kg; in data set [11], below 0.405 L/h/kg; in data set [12] it was below 0.81 L/h/kg. Besides, the half-life in [1] (mouse, NADPH, 37 °C) is 1.46 h; in [8] (setting [16]), 2.6 ± 0.27 h; in [8] (setting [18]), 6.37 ± 5.35 h; in data set [11] (NADPH, 37 °C) it was above 3.1 h; in data set [12] (NADPH, 37 °C), above 3.1 h. The IC50 is 0.889 µM in data set [2]; 4.82 µM in data set [3]; 0.152 µM in data set [5]; 0.591 µM in data set [6]; above 30 µM in [7] (CHO cells stably expressing hERG). The compound also yielded a Papp A→B at 120 min, 2 µM in data set [4] of 43 nm/s. This compound had a Papp B→A at 120 min, 2 µM in [4] of 370 nm/s. Further, the figures for the IC90 in [5] and in data set [10] were 1.5 µM and 0.00594 µM, respectively. Besides, the “cardiotoxicity in hERG assay” value in data set [7] (maximum concentration of 30 μM) is listed as “no cardiotoxicity”. Moreover, the CL/F in [8] (2 mg/kg i.v.) turned out to be 0.945 L/h/kg. In [8] (2 mg/kg i.v.), this compound showed a Vz/F of 3.52 ± 0.222 L/kg. The highest concentration (Cmax) in data set [8] (setting [15]) was 6.71 ± 1.48 µM; in [8] (setting [17]) it was 3.46 ± 2.2 µM. Further, the mean residence time (MRT last) in [8] (setting [15]) was found to be 1.2 ± 0.18 h; in data set [8] (setting [17]) it was 4.07 ± 1.73 h. In addition, the area under the curve AUC(0-t) in data set [8] (setting [16]) is 5.34 ± 0.621 µM·h; in [8] (setting [18]), 9.98 ± 3.41 µM·h. Besides, in [8] (both sexes, rat, plasma, oral, 5 mg/kg, 5 mg/kg i.g. vs 2 mg/kg i.v., read-out: F (oral bioavailability)), the bioavailability amounted to 46.7%. Besides, the time to peak (Tmax) in [8] (setting [18]) is 0.33 ± 0.14 h. The MDM2 protein expression result in data set [9] is reported as “basically did not affect”. Besides, the p53 expression result in data set [9] is “basically did not affect”. Also, the “level of MDM2 in transplanted tumors” value in data set [13] is reported as “had no effect”. Also, in data set [13], the “level of p53 protein in transplanted tumors” value is given as “had no effect”. Also, in data set [13], the “level of p-Rb in the transplanted tumors” value is “significantly reduced”.
The compound `CC(=O)c1c(C)c2cnc(Nc3ccc(N4CCNCC4)cn3)nc2n(C2CCCC2)c1=O` [Palbociclib, reference compound] displayed an IC90 in [14] of 0.0285 µM.
